The text below walks through data of patent US20230135127A1, “COMPOSITIONS AND METHODS FOR DISEASE TREATMENT AND PREVENTION BY PH MODIFIERS AND/OR CELL PROLIFERATION INHIBITORS” (priority 2021, published 2023).

Data set [1] relates to white bone marrow (WBM) cells. As to the method: (§1) For all examples, treatments of the mice were carried out either by i.t. (intra-tracheal) instillation or i.p. injection. For i.t. instillation, 60 μl of treatment solution of saline or saline plus 175 mM HCl or HOAc was instilled into the trachea of a mouse using a pipet tip. For i.p. injection, 200 μl of saline or saline plus 87.5 mM HCl, HOAc or NaOH was injected into the peritoneal cavity of a mouse using a 26 or 27G needle. At the time of the first treatment the body weights of the mice ranged about 19 to 30 g.
(§2) Cells were washed 3 times with PBS then stained with Zombie viability dyes at room temperature for 20 minutes. At the end of incubation, 10% volume of FBS was added to absorb excess Zombie dyes. After washes, the cells were stained with conjugated antibodies against surface antigens on ice. As specified in some experiments, the cells were subsequently stained with fluorochrome-conjugated Avidin. For Annexin V staining, cells were washed twice with plain PBS and once with Annexin V binging buffer (10 mM HEPES, pH7.4, 140 mM NaCl, 2.5 mM CaCl2)) after surface antigen staining, and incubated with fluorochrome-conjugated Annexin V in Annexin V binding buffer for 15 min at room temperature. The cells were washed twice in Annexin V binding buffer and resuspended in Annexin V binding buffer. 7-AAD was added to the cells before analyzed by flow cytometry. For Ki-67 and Foxp3 staining, lymphocytes (after Zombie dye and surface antigen staining) or tumor cells (without surface antigen staining) were fixed and permeabilized using Foxp3 staining buffer kit, then stained with PE-conjugated anti-mouse or human Ki-67 antibodies. (Biolegend, San Diego, Calif., USA). Stained and unstained cells were analyzed on Accuri C6 Flow Cytomer (Accuri Cytometers, Inc., Ann Arbor, Mich.), FACS Canto (BD Bioscience, San Jose, Calif., USA) and Attune™ cytometer (Invitrogen, Carlsbad, Calif.). Data analyses were carried out using FlowJo X.
To provide an example of this aspect of the present invention, C57BL/6 mice received i.p. treatments with saline or saline plus NaOH every other day for a total of 3 doses. Bone marrows were extracted from both tibias on day 1 or 3 after the final treatment.

Data set [2] deals with mice.
Data set [3] has as its system lymphocytes, eosinophils, macrophages in BALF; neutrophils in blood. As to the method:
as §2

For data set [4], the system named is C57BL/6 mice immunized with MOG35-55 (EAE). Conditions: for mice with clinical scores lower than at initiation of treatment: by day 4, 5 HCl mice, 9 HOAc mice; for average EAE clinical score: day 4 after initiation of treatment, saline 3.46; for inflammation in the spinal cords (histology): day 4 post initiation of treatment; for mice that reached clinical score of 4 or above: i.p. 87.5 mM, 4 doses from score 1.5-2.5, saline 10 of the 11. As for the experimental part: Induction of experimental autoimmune encephalomyelitis (EAE), the mouse model of multiple sclerosis, was carried out as previously described. (94). (Also see https://hookelabs.com/protocols/eaeAI_C57BL6.html). […] The final antigen emulsion comprised 1.5 mg/ml of MOG35-55, 189 μg/ml of M. tuberculosis H37Ra and 50% (by volume) IFA.
Female C57BL/6 mice of 9 weeks old were acclimated at CRDAL for 1 week. On day 0, mice were immunized by s.c. (subcutaneous) injection of the antigen emulsion at 4 evenly distributed sites in the dorsal area (25 μl/site). Two hours later, the mice were i.p. injected with Pertussis Toxin (List Biological laboratories, Campbell, Calif., USA) freshly prepared in ice-cold PBS (200 ng in 100 μl PBS/mouse). On day 1, the mice received a second i.p. injection of Pertussis Toxin at the same dosage. […] Mice with clinical score of 3 or above were provided wet chows and hydrogels.
In the EAE model of Example 2, two types of experiments, i.e., therapeutic and preventive experiments, were carried out. For the therapeutic experiments, on the day when the mice first reached the clinical scores of 1.5 to 2.5, the mice received i.p. treatments with saline, or saline plus 87.5 mM HCl or HOAc. The mice received additional 3 i.p. treatments every other day. […] The mice received i.p. treatments every other day for additional 2 doses. Clinical scores of all mice were recorded daily during and after the treatment periods, but experimentation was terminated on mice that reached clinical score of 5. As specified in some experiments, mice were sacrificed, and spinal cords were collected for histology analyses.
Lungs (after BALF collection), spinal cords and intestines were harvested and fixed in 10% neural formalin (Fisher Scientific, Kalamazoo, Mich., USA). […] Periodic acid-Schiff (PAS) staining was also performed with the lung tissue sections to determine mucus secretion in the lungs as a result of the inflammatory infiltration.

The test system of data set [5] is white bone marrow (WBM) cells. Conditions: for Ki-67hi cells in bone marrow B lineage (CD19+) cells: i.p. x3, 1 day after third treatment, saline 5.59%; for Ki-67hi cells in non-B lineage cells of non-granulocyte WBM cells: i.p. x3, saline 11.5%. As for the experimental part: as §1, §2
Like lymph nodes, bone marrow is one of the most common sites for tumor metastasis. (106). In addition, primary tumors or tumor-like lesions can also occur in the bone. (107). […] In this example, C57BL/6 mice were treated with i.p. injection of saline, or saline plus HCl or HOAc every other day for 3 times. Bone marrow cells were extracted from both tibias 1 day after the third treatment for the study of B lineage cells, and for the studies of other cell types 3 days after the third i.p. treatment with saline or saline plus HOAc, and alternatively, mice received one i.t. injection of saline or saline plus HOAc, bone marrow was extracted from tibias the next day.

Data set [6] deals with granulocytes and lymphocytes in the blood. To be noted: RBC-depleted blood.
The subject of data set [7] is C57BL/6 mice immunized with MOG35-55 (EAE).
The test system of data set [8] is lesions of allergic contact dermatitis.
[9] abbreviates: about 5.25M in water, topical 4 times a day, day 1.

Counter-ions that a name gives are not always drawn. Like-named read-outs stand apart in the source and are kept apart here.

Turning to `[Na+].[OH-]` [NaOH, sodium hydroxide], the “Ki-67hi cells in B lineage cells” value in data set [1] (day 1, saline 4.85%) amounted to 24.8%. Besides, the “Ki-67hi cells in non-B lineage cells” value in data set [1] (day 1, saline 11.2%) was found to be 35.3%. For the same molecule, the “Ki-67lo cells in B lineage cells” value in data set [1] (day 1, saline 34.7%) is given as 61.6%. The “Ki-67hi MPP” value in data set [1] (day 3, saline 0%) is on record as 2.54%. In addition, the “percentage of T (CD3+) cells in WBM cells” value in data set [1] (day 3, saline 0.69%) stood at 0.87%. The “Sca-1+ c-kit+ stem cells in Lin- WBM cells” value in data set [1] (day 3, saline 0.81%) came to 1.74%. Also, in data set [1] (day 3, saline 2.86%), the “Ki-67hi cells in T cells” value is 11.6%. Also, the “Ki-67hi HSC” value in data set [1] (day 3, saline 6.67%) is on record as 15.6%. Further, the “Ki-67neg TER-119+ cells” value in data set [1] (day 3, saline 7.11%) came to 6.72%. Further, in data set [1] (day 3, saline 14.6%), the “percentage of TER-119+ cells in lymphoid and myeloid negative WBM cells” value is 17.5%. Also, in data set [1] (day 3, saline 18.4%), the “percentage of CD11c+ TCR- cells in WBM cells” value is reported as 64%. For the same molecule, the “Ki-67lo cells in T cells” value in data set [1] (day 3, saline 20%) was 28.7%. In data set [1] (day 3, saline 21.9%), the “Ki-67lo MPP” value was 30.7%. The “Ki-67lo TER-119+ cells” value in data set [1] (day 3, saline 25.3%) is on record as 16%. Further, the “Ki-67+ cells within the Ly6G+ population” value in data set [1] (day 3, saline 33.7%) is 43.6%. Moreover, in data set [1] (day 3, saline 39.5%), the “Ki-67+ cells in CD11c+ TCR- cells” value is listed as 70.1%. For the same molecule, the “percentage of Ly6G+ cells in WBM cells” value in data set [1] (day 3, saline 42.4%) stood at 57.7%. In addition, the “Ki-67hi TER-119+ cells” value in data set [1] (day 3, saline 67%) is 76.2%. Further, the “increase of average total number of WBM cells vs saline” value in data set [1] (i.p. x3, both tibias) amounted to 88%. The “percentage of CD19+ B lineage cells in non-granulocyte WBM cells” value in data set [1] (one day after three i.p. treatments, saline about 11%) is listed as 17%. Moreover, the “average percentage of WBM cells in total bone marrow cells” value in data set [1] (saline less than 14%) is recorded as “over 29%”. Further, in data set [2], the “tolerance of i.t. instillation” value is “poorly tolerant”.
Regarding `CC(=O)O` [HOAc, acetic acid], the “apoptotic (Annexin V+7-AAD+) macrophages in BALF” value in data set [3] (i.t. after 3rd challenge, saline 0.71%) amounted to 56.4%. Moreover, in data set [3] (i.t. after 3rd challenge, saline 2.87%), the “apoptotic (Annexin V+7-AAD+) eosinophils in BALF” value came out at 95.2%. Also, the “apoptotic (Annexin V+7-AAD+) lymphocytes in BALF” value in data set [3] (i.t. after 3rd challenge, saline 3.15%) is recorded as 85.3%. Besides, in data set [3] (saline 7.61%), the “apoptotic neutrophils (Ly6G high) in blood” value amounted to 38.4%. Also, in data set [4], the “mice with clinical scores lower than at initiation of treatment” value amounted to 6, the “average EAE clinical score” value came out at 1.78, the “inflammation in the spinal cords (histology)” value is listed as “no obvious inflammation” and the “mice that reached clinical score of 4 or above” value is given as 1 of the 9. For the same molecule, the “mice whose clinical score remained the same” value in data set [4] (mouse, in vivo) stood at 2. For the same molecule, in data set [5] (i.p. treated, saline 4.21%), the “Ki-67hi cells in bone marrow T (CD3+) cells” value is 2.46%. Besides, in data set [5] (i.p. treated, saline 11.1%), the “Ki-67hi HSC” value is “no Ki-67^hi HSC were detected”. For the same molecule, in data set [5] (i.p. treated, saline 72.3%), the “Ki-67hi cells in erythroid (TER-119+) lineage cells” value is 46.9%. Also, in data set [5], the “Ki-67hi cells in bone marrow B lineage (CD19+) cells” value is on record as 3.3% and the “Ki-67hi cells in non-B lineage cells of non-granulocyte WBM cells” value came out at 5.11%. Moreover, the “Ki-67hi cells in bone marrow T (CD3+) cells” value in data set [5] (i.t. treated, one injection, saline 4.88%) is recorded as 2.44%. In data set [5] (i.t. treated, saline 5.56%), the “Ki-67hi HSC” value is given as “no Ki-67^hi HSC were detected”. Besides, the “Ki-67hi cells in erythroid (TER-119+) lineage cells” value in data set [5] (i.t. treated, saline 67.3%) came to 33.3%. Also, the “percentage of lymphocytes in blood” value in data set [6] (saline 22.9%) stood at 13.6%. The “percentage of granulocytes in blood” value in data set [6] (saline 32.6%) is given as 1.1%. Further, the “rate of disease onset (mice with EAE)” value in data set [7] (day 2 after initiation of i.p. treatment, saline 50%) turned out to be 30%. Besides, the “maximum rate of disease onset” value in data set [7] (reached 5 days after initiation, saline 80% on day 3) is 60%. Further, in data set [8] (setting [9]), the “rash in lesion 2” value was “almost completely disappeared” and the “rashes in lesion 1” value was “partially disappeared”. For the same molecule, the “rashes in both lesions” value in data set [8] (by day 2 and day 3, treated day 0 and day 1) is recorded as “completely disappeared”.
For the molecule `Cl` [HCl, hydrochloric acid], in data set [4], the “mice with clinical scores lower than at initiation of treatment” value is given as “all”, the “average EAE clinical score” value is listed as 0.9, the “inflammation in the spinal cords (histology)” value is recorded as “no obvious inflammation” and the “mice that reached clinical score of 4 or above” value was “none of the 5”. In addition, in data set [5], the “Ki-67hi cells in bone marrow B lineage (CD19+) cells” value turned out to be 2.83% and the “Ki-67hi cells in non-B lineage cells of non-granulocyte WBM cells” value was found to be 6.34%.
